Laboratory results reported in patent publication US20200315923A1, “DESINFECTANT BONE AND DENTAL FILLER MATERIALS COMPRISING LIPOSOMES” (Cementic, priority 2017, published 2020).

Columns and labels:
Enterococcus faecalis = assay: Agarose gel diffusion test; assay type: cell-based; details: agar diffusion, this experiment
Method: An adaptation of the agarose gel diffusion test was tested and validated for dental cements. The analysis was performed using the plaque assay. In the case of a test on samples of various concentrations, the ICM can be estimated using a software available on an on-line platform developed by Bonev in 2008 (http://agardiffusion.com) (Principles of assessing bacterial susceptibility to antibiotics using the agar diffusion method J. Antimic. Chemoth., 61 12951301).
For this experiment, liposomes and disinfecting fillers were produced as described in 8.1 and 7.6 a.
3 mm circular wells were punched using a disposable biopsy needle into Mueller-Hinton agar. The agar was then homogeneously inoculated with 100 μL of a solution of Enterococcus faecalis adjusted to a concentration of 0.5 MacFarland. Bio Root™ cement was then prepared (500 mg powder+250 μL liquid+/−35 μL CEM CHX 0918-001). The wells were then filled with cement using a pipetman for viscous solutions. The agar plates were then incubated at 37° C. under aerobic conditions for 24 hours. The area of growth inhibition was then measured using a ruler (FIG. 26).
To measure the effect of the prolonged release of antimicrobial agent, agar plates were prepared as above but without being inoculated with E. faecalis. […] The plates were then incubated for 24 hours and the lysis areas measured with a ruler.

Gram-bacteria = details: cited from earlier work
Gram+ bacteria = details: cited from earlier work

N=C(NCCCCCCNC(=N)NC(=N)Nc1ccc(Cl)cc1)NC(=N)Nc1ccc(Cl)cc1.O=C(O)[C@H](O)[C@@H](O)[C@H](O)[C@H](O)CO.O=C(O)[C@H](O)[C@@H](O)[C@H](O)[C@H](O)CO [chlorhexidine digluconate]
calculated MIC (Enterococcus faecalis): 15.5 µg/mL

[H]/N=C(\N/C(=N/[H])NCCCCCCNC(=N)NC(=N)Nc1ccc(Cl)cc1)Nc1ccc(Cl)cc1 [chlorhexidine]
MIC (concentration corresponding to the elimination of 90% of the bacteria) (Gram-bacteria): 40 µg/mL
MIC (concentration corresponding to the elimination of 90% of the bacteria) (Gram+ bacteria): 22 µg/mL
